Columns and labels:
[1] = test system: ATP-ASAP (DNA, aptamer, single rA at cleavage site in DNA substrate, flanked by fluorescein-dT and DABCYL-dT) CTTCGGAGGAGAACCATAGTCGGGGGAGAAGATGTGTCCGTGCTATGGTTCGA; test: fluorescence enhancement kinetics, MgZ DNAzyme cleavage sensor; conditions: 20 mM MgCl2; 50 mM HEPES pH 7.0, 0.001% Tween-20, room temperature; highest tested 1 mM
[2] = test system: ADP-ASAP (DNA:RNA, aptamer, RNA aptamer with all-DNA 30-nt antisense element; single rA in DNA substrate flanked by fluorescein-dT and DABCYL-dT) GGAGACGAGGGGTCGAACCGTAGCCCGAAGGTAGGAAGAGTGCCCCGGACAAUCAGACACGGUCUCCACTCTTCCTAGCTATGGTTCGATCAAGA; test: as above; conditions: 20 mM MgCl2
[3] = test system: ADP-ASAP (DNA:RNA, aptamer, RNA aptamer with all-DNA 30-nt antisense element; single rA in DNA substrate flanked by fluorescein-dT and DABCYL-dT) GGAGACGAGGGGTCGAACCGTAGCCCGAAGGTAGGAAGAGTGCCCCGGACAAUCAGACACGGUCUCCACTCTTCCTAGCTATGGTTCGATCAAGA; test: initial rate of fluorescence enhancement, MgZ DNAzyme cleavage sensor; conditions: 20 mM MgCl2, 50 mM HEPES pH 7.0, 0.001% Tween-20, room temperature, 5 nM ASAP, 1 µM MgZ
[4] = test system: ATP-ASAP (DNA, aptamer, single rA at cleavage site in DNA substrate, flanked by fluorescein-dT and DABCYL-dT) CTTCGGAGGAGAACCATAGTCGGGGGAGAAGATGTGTCCGTGCTATGGTTCGA; test: as above; conditions: 20 mM MgCl2, 50 mM HEPES pH 7.0, 0.001% Tween-20, room temperature, 5 nM ASAP, 50 nM MgZ
[5] = 50 mM HEPES pH 7.0, 0.001% Tween-20, room temperature, highest tested 1 mM

In the case of `Nc1nc2c(ncn2[C@@H]2O[C@H](COP(=O)(O)OP(=O)(O)OP(=O)(O)O)[C@@H](O)[C@H]2O)c(=O)[nH]1`, the binding [1] is reported as “no”.
With `Nc1ncnc2c1ncn2[C@@H]1O[C@H](CO)[C@@H](O)[C@H]1O` the binding [2, 5] was “no”.
`Nc1ncnc2c1ncn2[C@@H]1O[C@H](COP(=O)(O)O)[C@@H](O)[C@H]1O` was tested, and the binding [2, 5] was “no”.
In the case of `Nc1ncnc2c1ncn2[C@@H]1O[C@H](COP(=O)(O)OP(=O)(O)O)[C@@H](O)[C@H]1O`, the “apparent K d” value [3] is reported as 35 ± 3 µM.
`Nc1ncnc2c1ncn2[C@@H]1O[C@H](COP(=O)(O)OP(=O)(O)OP(=O)(O)O)[C@@H](O)[C@H]1O` was tested, and the binding ([2]; 50 mM HEPES pH 7.0, room temperature, no signal at 200 µM, signal at 300-1000 µM) was “weak” and the “apparent K d” value [4] was 456 ± 47 µM.
